Read-outs that look alike come from different tables or passages of the source.
Legend:
[1] = system: HCV replicon RNA replication in Huh-7 luc/neo (Huh-Luc) cells; test: HCV replicon assay (stable replicon cell reporter assay, luciferase read-out); format: cell-based, HCV type 1b
Outline: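 Three-day compound exposure used Huh-Luc cells, which harbour an autonomously replicating genotype 1b NS3-NS5B replicon expressing luciferase and neo^R. Luciferase signal served as the replication read-out, and dose-response curves came from several concentrations per compound.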

[2] = target: T1, HCV NS5B polymerase (His-tagged, C-terminal 21 amino acid deleted NS5B, HC-J4) (Hepatitis C virus genotype 1b, UniProt O92972); test: NS5b polymerase assay (biochemical RdRp assay, 3H-GTP incorporation, SPA beads); design: species or system HCV genotype 1b
T1 construct: The cDNA encoding NS5B amino acid 1-570 (HC-J4, genotype 1b); His tag (His6, from pET-21b) (C); made in house; host or cells: E. coli BL21 (DE3)
T1 sequence (O92972 2417-3000, looked up, stated change not applied): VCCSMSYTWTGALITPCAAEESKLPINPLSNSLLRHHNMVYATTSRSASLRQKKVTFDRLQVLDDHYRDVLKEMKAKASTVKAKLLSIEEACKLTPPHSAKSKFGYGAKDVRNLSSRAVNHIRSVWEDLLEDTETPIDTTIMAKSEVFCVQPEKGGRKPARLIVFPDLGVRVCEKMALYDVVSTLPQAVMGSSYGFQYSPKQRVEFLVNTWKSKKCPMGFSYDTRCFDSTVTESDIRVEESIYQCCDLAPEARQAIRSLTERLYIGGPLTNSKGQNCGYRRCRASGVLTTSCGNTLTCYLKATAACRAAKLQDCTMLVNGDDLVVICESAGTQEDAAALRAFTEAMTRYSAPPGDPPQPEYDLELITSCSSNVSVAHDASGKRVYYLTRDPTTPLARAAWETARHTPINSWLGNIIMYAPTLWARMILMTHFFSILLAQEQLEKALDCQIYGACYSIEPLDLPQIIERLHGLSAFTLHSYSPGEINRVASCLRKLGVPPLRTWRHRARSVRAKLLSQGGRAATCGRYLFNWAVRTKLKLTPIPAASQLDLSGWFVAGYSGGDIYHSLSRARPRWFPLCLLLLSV
Outline: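 3H-GTP incorporation into newly made RNA was captured on SPA beads added in EDTA after 2 h at 25 °C. Compounds in DMSO met preformed enzyme–template complex (200 nM truncated His-NS5B, HC-J4 1b; biotin-oligo(rG13)/poly(rC)) for 15 min at RT, then 600 nM GTP, 5 mM MgCl2, Tris pH 7.5 started polymerization.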

[3] = Hepatitis C virus, Huh-7, 72 h, read-out: Replicon Assay EC50 (μM), Huh-Luc cells, incubation of three days, luciferase activity
[4] = NS5B Polymerase Assay IC50 (μM)
[5] = Hepatitis C virus, Huh-7, 72 h, read-out: Replicon Assay EC50, Huh-Luc cells, three days incubation, luciferase activity
[6] = NS5B Polymerase Assay IC50, 200 nM enzyme, 3H-GTP incorporation, 2 h at 25° C.
[7] = Huh-Luc cells, three days incubation, luciferase activity, read-out: Replicon Assay EC50
[8] = 200 nM enzyme, 3H-GTP incorporation, 2 h at 25° C., read-out: NS5B Polymerase Assay IC50

Row | Compound | EC50 [1, 3] [µM] | IC50 [2, 4] [µM] | EC50 [1, 5] [µM] | IC50 [2, 6] [µM] | also measured
1 | COc1ccc(C2CC(=O)C3=C(C2)Nc2ccccc2NC3c2ccc(Cl)cc2)cc1OC (stereo not drawn) [compound 415] | 14.7 | > 33.3 | – | – | –
2 | CC1(C)CC(=O)C2=C(C1)Nc1ccccc1N(CC(=O)O)C2c1ccc(Cl)cc1Cl (stereo not drawn) [compound 511] | > 100 | 1.9 | – | – | –
3 | CC(C)C(=O)N1c2ccccc2NC2=C(C(=O)CC(C)(C)C2)C1c1ccc(OCc2ccccc2)cc1 (stereo not drawn) [compound 99] | – | – | 3.69 | > 42.7 | –
4 | CC1(C)CC(=O)C2=C(C1)Nc1ccccc1NC2c1ccc([N+](=O)[O-])cc1 (stereo not drawn) [compound 448] | > 100 | > 133 | – | – | –
5 | COc1ccc(C2CC(=O)C3=C(C2)Nc2ccccc2NC3c2ccc(N(C)C)cc2)cc1 (stereo not drawn) [compound 328] | 22.7 | > 42.7 | – | – | –
6 | CC(=O)N1c2ccccc2NC2=C(C(=O)CC(C)(C)C2)C1c1cccc(OCc2ccccc2)c1 (stereo not drawn) [compound 136, 10-acetyl-11-(3-benzyloxyphenyl)-3,3-dimethyl-2,3,4,5,10,11-hexahydro-1H-dibenzo[b,e][1,4]diazepin-1-one] | – | – | 9.51 | > 133 | –
7 | COc1ccc(C2CC(=O)C3=C(C2)Nc2ccccc2NC3c2ccc(OCc3ccccc3)c(OC)c2)cc1OC (stereo not drawn) [compound 405] | 5.34 | > 42.7 | – | – | –
8 | CC(=O)N1c2ccccc2NC2=C(C(=O)CC(C)(C)C2)C1c1cc(Cl)c(OCc2ccccc2)c(Cl)c1 (stereo not drawn) [compound 143, 10-acetyl-11-[4-benzyloxy-3,5-dichlorophenyl]-3,3-dimethyl-2,3,4,5,10,11-hexahydro-1H-dibenzo[b,e][1,4]diazepin-1-one] | – | – | 6.3 | 16 | –
9 | CCCCCC(=O)N1c2ccccc2NC2=C(C(=O)CC(c3cccc([N+](=O)[O-])c3)C2)C1c1ccc(OC)cc1 (stereo not drawn) [compound 168] | – | – | – | – | EC50 [1, 7]: 3.61 µM; IC50 [2, 8]: > 42.7 µM
10 | CC(=O)N1c2ccccc2NC2=C(C(=O)CC(c3ccccc3Cl)C2)C1c1ccc(C)cc1 (stereo not drawn) [compound 229] | – | – | – | – | EC50 [1, 7]: 10.9 µM; IC50 [2, 8]: > 42.7 µM
11 | COc1ccc(C2Nc3ccccc3NC3=C2C(=O)CC(c2ccc(Cl)cc2)C3)cc1OC (stereo not drawn) [compound 352] | 9.61 | > 42.7 | – | – | –
12 | CC1(C)CC(=O)C2=C(C1)Nc1ccccc1NC2c1cccnc1 (stereo not drawn) [compound 499] | > 32 | > 42.7 | – | – | –
13 | COc1ccc(C2CC(=O)C3=C(C2)Nc2ccccc2NC3c2ccccc2Br)cc1 (stereo not drawn) [compound 390] | 9.07 | > 42.7 | – | – | –
14 | COc1ccc(C2C3=C(CC(C)(C)CC3=O)Nc3ccccc3N2C(=O)CC(C)C)c(OC)c1 (stereo not drawn) [compound 30] | – | – | 23 | > 42.6 | –
15 | CC(C)CC(=O)N1c2ccccc2NC2=C(C(=O)CC(C)(C)C2)C1c1ccc(Cl)cc1 (stereo not drawn) [compound 9] | – | – | 3.61 | > 42.7 | –
16 | CCCCC(=O)N1c2ccccc2NC2=C(C(=O)CC(C)(C)C2)C1c1ccc(Cl)cc1Cl (stereo not drawn) [compound 17] | – | – | 6.59 | > 42.7 | –
17 | COc1ccc([C@@H]2CC(=O)C3=C(C2)Nc2ccccc2N[C@H]3c2c[nH]c3ccccc23)cc1 [compound 489] | 5.91 | > 42.7 | – | – | –
18 | CC(=O)N1c2ccccc2NC2=C(C(=O)CC(C)(C)C2)[C@@H]1c1ccc(OCc2ccccc2)cc1Cl (single isomer, unassigned) [compound 306] | – | – | 3.92 | 83.1 | –
19 | CC(C)CC(=O)N1c2ccccc2NC2=C(C(=O)CC(C)(C)C2)C1c1ccc2c(c1)OCO2 (stereo not drawn) [compound 242] | – | – | 1.77 | > 42.7 | –
20 | O=C1CC(c2ccc(Cl)cc2)CC2=C1C(c1cccc(Cl)c1)N(C(=O)c1ccccc1)c1ccccc1N2 (mixture of isomers) [compound 203] | – | – | – | – | EC50 [1, 7]: 9.94 µM; IC50 [2, 8]: > 33.3 µM
21 | CC(=O)N1c2ccccc2NC2=C(C(=O)CC(c3ccccc3OCc3ccccc3)C2)C1c1cccc(OC(=O)c2ccc(Cl)cc2)c1 (single isomer, unassigned) [compound 191, 10-Acetyl-3-(2-benzyloxyphenyl)-11-[3-(4-chlorobenzoyloxy)phenyl]-2,3,4,5,10,11-hexahydro-dibenzo[b,e][1,4]diazepin-1-one] | – | – | 2.88 | > 42.7 | –
22 | CCCCCC(=O)N1c2ccccc2NC2=C(C(=O)CC(c3ccc(Cl)cc3)C2)C1c1ccc(Cl)cc1 (stereo not drawn) [compound 164] | – | – | 18.5 | > 33.3 | –
23 | Cc1ccc(C2Nc3ccccc3NC3=C2C(=O)CC(c2ccccc2)C3)cc1 (stereo not drawn) [compound 344] | 21.6 | > 42.7 | – | – | –
24 | CCCCCC(=O)N1c2ccccc2NC2=C(C(=O)CC(c3ccc(OC)c(OC)c3)C2)C1c1cccc(Cl)c1 (mixture of isomers) [compound 205] | – | – | – | – | EC50 [1, 7]: 9.96 µM; IC50 [2, 8]: > 33.3 µM
25 | CCN(CC)c1ccc(C2C3=C(CC(C)(C)CC3=O)Nc3ccccc3N2C(C)=O)cc1 (stereo not drawn) [compound 131] | – | – | > 32 | > 42.7 | –
26 | CC1(C)CC(=O)C2=C(C1)Nc1ccccc1N(C(=O)c1ccc(Br)cc1)C2c1ccco1 (stereo not drawn) [compound 254] | – | – | 15.3 | > 42.6 | –

Row | Compound | EC50 [1, 3] [µM] | IC50 [2, 4] [µM] | EC50 [1, 5] [µM] | IC50 [2, 6] [µM] | also measured
27 | COc1ccc(C2CC(=O)C3=C(C2)Nc2ccccc2NC3c2cc(Br)c(OC)c(OC)c2)cc1 (stereo not drawn) [compound 402] | 8.59 | > 42.7 | – | – | –
28 | O=C1C[C@@H](c2ccc(Cl)cc2)CC2=C1[C@H](c1c[nH]c3ccccc13)Nc1ccccc1N2 [compound 482] | 27 | > 42.7 | – | – | –
29 | CC1(C)CC(=O)C2=C(C1)Nc1ccccc1N(C(=O)c1ccccc1)C2c1ccc(F)cc1 (stereo not drawn) [compound 77] | – | – | 21.2 | > 42.7 | –
30 | CC(=O)N1c2ccccc2NC2=C(C(=O)CC(c3ccccc3OCc3ccccc3)C2)C1C(Br)=Cc1ccccc1 (stereo not drawn) [compound 300] | – | – | – | – | EC50 [1, 7]: 0.706 µM; IC50 [2, 8]: > 133 µM
31 | O=C1CC(c2ccc(Cl)cc2)CC2=C1C(c1cccc(F)c1)Nc1ccccc1N2 (stereo not drawn) [compound 380] | 8.63 | > 42.7 | – | – | –
32 | CCC(C)Oc1ccccc1C1C2=C(CC(C)(C)CC2=O)Nc2ccccc2N1C(=O)C(F)(F)F (stereo not drawn) [compound 65] | – | – | 2.48 | > 42.7 | –
33 | CN(C)c1ccc(C2C3=C(CC(C)(C)CC3=O)Nc3ccccc3N2C(=O)Cc2ccc(Cl)cc2)cc1 (stereo not drawn) [compound 8] | – | – | 5.65 | > 42.7 | –
34 | CC(C)CC(=O)N1c2ccccc2NC2=C(C(=O)CC(C)(C)C2)C1c1ccc(Cl)c(Cl)c1 (stereo not drawn) [compound 78] | – | – | 22.2 | > 33.3 | –
35 | CCC(=O)N1c2ccccc2NC2=C(C(=O)CC(c3ccc(OC)c(OC)c3)C2)C1c1ccc(Cl)cc1 (stereo not drawn) [compound 228] | – | – | – | – | EC50 [1, 7]: 17.2 µM; IC50 [2, 8]: > 33.3 µM
36 | CC(C)C(=O)N1c2ccccc2NC2=C(C(=O)CC(C)(C)C2)C1c1ccc(C(F)(F)F)cc1 (stereo not drawn) [compound 5] | – | – | 19.9 | > 42.7 | –
37 | COc1ccc(C2CC(=O)C3=C(C2)Nc2ccccc2NC3c2cc(Br)ccc2OC)cc1 (stereo not drawn) [compound 335] | 11.9 | > 42.7 | – | – | –
38 | O=C1CC(c2ccc(Cl)cc2)CC2=C1C(c1ccccc1Cl)Nc1ccccc1N2 (stereo not drawn) [compound 340] | 5.09 | > 42.7 | – | – | –
39 | CCCCCC(=O)N1c2ccccc2NC2=C(C(=O)CC(c3ccc(Cl)cc3)C2)C1c1ccc(OC)cc1 (mixture of isomers) [compound 215] | – | – | – | – | EC50 [1, 7]: 14.1 µM; IC50 [2, 8]: > 33.3 µM
40 | CC1(C)CC(=O)C2=C(C1)Nc1ccccc1N(C(=O)c1ccccc1)C2c1ccccc1F (stereo not drawn) [compound 94] | – | – | 3.4 | > 42.7 | –
41 | CC1(C)CC(=O)C2=C(C1)Nc1ccccc1NC2c1ccc(OCc2ccccc2)cc1Cl (stereo not drawn) [compound 443] | 1.78 | 0.312 | – | – | –
42 | COc1ccc(C2C3=C(CC(c4cccc([N+](=O)[O-])c4)CC3=O)Nc3ccccc3N2C(=O)c2ccccc2)cc1 (stereo not drawn) [compound 221] | – | – | – | – | EC50 [1, 7]: 23.2 µM; IC50 [2, 8]: > 42.7 µM
43 | CCC(=O)N1c2ccccc2NC2=C(C(=O)CC(C)(C)C2)C1c1ccc(F)cc1 (stereo not drawn) [compound 49] | – | – | 11.2 | > 42.7 | –
44 | CCC(=O)N1c2ccccc2NC2=C(C(=O)CC(C)(C)C2)C1c1ccccc1OCc1ccccc1 (stereo not drawn) [compound 11] | – | – | 14.7 | > 42.7 | –
45 | O=C1CCCC2=C1C(c1ccc(Cl)cc1Cl)Nc1ccccc1N2 (stereo not drawn) [compound 421] | 51.9 | > 133 | – | – | –
46 | CC1(C)CC(=O)C2=C(C1)Nc1ccccc1N(C(=O)C(F)(F)F)C2c1cccc(Cl)c1Cl (stereo not drawn) [compound 25] | – | – | 24.6 | > 42.7 | –
47 | CSc1ccc(C2Nc3ccccc3NC3=C2C(=O)CC(c2ccccc2)C3)cc1 (stereo not drawn) [compound 362] | 19.3 | 30.6 | – | – | –
48 | COc1cc2c(cc1OC)N(C(C)=O)C(c1ccc(Cl)cc1Cl)C1=C(CC(C)(C)CC1=O)N2 (stereo not drawn) [compound 309, 10-acetyl-7,8-dimethoxy-11-(2,4-dichlorophenyl)-3,3-dimethyl-2,3,4,5,10,11-hexahydro-1H-dibenzo[b,e][1,4]diazepin-1-one] | – | – | 39.6 | > 133 | –
49 | CCC(=O)N1c2ccccc2NC2=C(C(=O)CC(c3ccc(OC)cc3)C2)C1c1ccc(Cl)cc1 (stereo not drawn) [compound 227] | – | – | – | – | EC50 [1, 7]: 17 µM; IC50 [2, 8]: > 33.3 µM
50 | Cn1cccc1C1C2=C(CC(C)(C)CC2=O)Nc2ccccc2N1C(=O)C(F)(F)F (stereo not drawn) [compound 260] | – | – | 22.5 | > 42.7 | –
51 | O=C1CC(c2ccco2)CC2=C1C(c1ccco1)N(C(=O)C(F)(F)F)c1ccccc1N2 (stereo not drawn) [compound 297] | – | – | 23.6 | > 42.7 | –
